Assay results: ChEMBL document CHEMBL2417377, “Hit-to-lead optimization and kinase selectivity of imidazo[1,2-a]quinoxalin-4-amine derived JNK1 inhibitors” (Bioorg Med Chem Lett, 2013)

Assays:
Conditions in all cases: PC-3
[1] = molecular target: PI4KA/PI4KAP2 (Homo sapiens) (UniProt P42356+A4QPH2); test: Inhibition of PI4KA/PI4KAP2 in human PC3 cell lysates at 10 uM using desthiobiotin-tagged ATP probe AX9989 followed by trypsinization by LC/MS analysis; type: protein-complex assay
[2] = molecular target: Casein kinase II subunit alpha' (Homo sapiens) (UniProt P19784); test: Inhibition of CK2alpha2 in human PC3 cell lysates at 10 uM using desthiobiotin-tagged ATP probe AX9989 followed by trypsinization by LC/MS analysis
Sequence of Casein kinase II subunit alpha' (Homo sapiens) (P19784 whole entry, looked up): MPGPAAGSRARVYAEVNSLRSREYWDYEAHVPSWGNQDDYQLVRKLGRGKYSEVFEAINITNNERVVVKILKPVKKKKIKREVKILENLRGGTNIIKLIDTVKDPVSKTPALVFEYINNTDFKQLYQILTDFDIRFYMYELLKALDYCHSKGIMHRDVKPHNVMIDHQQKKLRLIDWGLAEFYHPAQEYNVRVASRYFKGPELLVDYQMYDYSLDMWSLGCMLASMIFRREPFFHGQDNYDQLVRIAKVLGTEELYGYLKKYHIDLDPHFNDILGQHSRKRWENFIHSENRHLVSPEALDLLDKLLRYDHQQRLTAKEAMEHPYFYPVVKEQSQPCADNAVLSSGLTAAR

[3] = molecular target: Tyrosine-protein kinase Fer (Homo sapiens) (UniProt P16591); test: Inhibition of FER in human PC3 cell lysates at 10 uM using desthiobiotin-tagged ATP probe AX9989 followed by trypsinization by LC/MS analysis
Sequence of Tyrosine-protein kinase Fer (Homo sapiens) (P16591 whole entry, looked up): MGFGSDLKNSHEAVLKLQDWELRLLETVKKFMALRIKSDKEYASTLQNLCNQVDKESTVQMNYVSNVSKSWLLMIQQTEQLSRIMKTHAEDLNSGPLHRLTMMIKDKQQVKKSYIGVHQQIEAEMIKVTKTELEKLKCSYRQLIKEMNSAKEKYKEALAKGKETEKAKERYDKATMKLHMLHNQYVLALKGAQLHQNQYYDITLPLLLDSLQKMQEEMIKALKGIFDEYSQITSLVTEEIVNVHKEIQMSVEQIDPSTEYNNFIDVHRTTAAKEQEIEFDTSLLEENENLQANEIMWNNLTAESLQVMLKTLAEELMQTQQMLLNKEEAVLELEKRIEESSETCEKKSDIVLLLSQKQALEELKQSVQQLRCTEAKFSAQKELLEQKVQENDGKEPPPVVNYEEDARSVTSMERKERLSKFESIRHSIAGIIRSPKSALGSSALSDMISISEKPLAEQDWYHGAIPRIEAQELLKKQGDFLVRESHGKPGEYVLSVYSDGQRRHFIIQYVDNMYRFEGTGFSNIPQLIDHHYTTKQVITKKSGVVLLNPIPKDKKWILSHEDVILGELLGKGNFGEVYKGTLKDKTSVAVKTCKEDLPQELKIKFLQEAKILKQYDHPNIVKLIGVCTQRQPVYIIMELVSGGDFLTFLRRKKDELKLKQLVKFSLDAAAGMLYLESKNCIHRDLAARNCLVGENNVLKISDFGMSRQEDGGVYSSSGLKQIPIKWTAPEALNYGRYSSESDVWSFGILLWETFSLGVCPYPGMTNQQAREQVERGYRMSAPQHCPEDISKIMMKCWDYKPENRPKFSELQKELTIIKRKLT

[4] = molecular target: Serine/threonine-protein kinase MRCK beta (Homo sapiens) (UniProt Q9Y5S2); test: Inhibition of MRCKbeta in human PC3 cell lysates at 10 uM using desthiobiotin-tagged ATP probe AX9989 followed by trypsinization by LC/MS analysis
[5] = molecular target: Ribosomal protein S6 kinase alpha-3 (Homo sapiens) (UniProt P51812); test: Inhibition of RSK2 domain2 in human PC3 cell lysates at 10 uM using desthiobiotin-tagged ATP probe AX9989 followed by trypsinization by LC/MS analysis
Sequence of Ribosomal protein S6 kinase alpha-3 (Homo sapiens) (P51812 whole entry, the tested form may be a part): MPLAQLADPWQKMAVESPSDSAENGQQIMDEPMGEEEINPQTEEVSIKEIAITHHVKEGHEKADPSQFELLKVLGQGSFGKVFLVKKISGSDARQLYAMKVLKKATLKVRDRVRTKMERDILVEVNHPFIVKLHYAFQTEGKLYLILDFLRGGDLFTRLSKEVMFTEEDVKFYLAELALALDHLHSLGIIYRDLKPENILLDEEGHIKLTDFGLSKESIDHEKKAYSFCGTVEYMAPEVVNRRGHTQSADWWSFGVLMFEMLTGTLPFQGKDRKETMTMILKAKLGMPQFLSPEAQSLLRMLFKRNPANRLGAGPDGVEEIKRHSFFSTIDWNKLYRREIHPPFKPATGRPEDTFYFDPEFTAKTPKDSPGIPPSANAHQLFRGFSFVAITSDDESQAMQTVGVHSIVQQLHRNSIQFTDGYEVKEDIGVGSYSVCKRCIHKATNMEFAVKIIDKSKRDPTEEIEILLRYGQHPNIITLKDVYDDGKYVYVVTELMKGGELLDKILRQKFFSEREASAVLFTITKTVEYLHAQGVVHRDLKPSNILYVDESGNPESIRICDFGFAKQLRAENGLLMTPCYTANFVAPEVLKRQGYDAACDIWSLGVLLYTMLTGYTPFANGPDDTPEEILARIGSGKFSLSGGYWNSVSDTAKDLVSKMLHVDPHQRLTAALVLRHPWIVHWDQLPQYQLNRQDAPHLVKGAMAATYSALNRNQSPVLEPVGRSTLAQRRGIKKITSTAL

[6] = molecular target: T1, Dual specificity mitogen-activated protein kinase kinase 6 (Homo sapiens) (UniProt P52564); test: Inhibition of MAP2K6 in human PC3 cell lysates at 10 uM using desthiobiotin-tagged ATP probe AX9989 followed by trypsinization by LC/MS analysis
T1 sequence (whole entry): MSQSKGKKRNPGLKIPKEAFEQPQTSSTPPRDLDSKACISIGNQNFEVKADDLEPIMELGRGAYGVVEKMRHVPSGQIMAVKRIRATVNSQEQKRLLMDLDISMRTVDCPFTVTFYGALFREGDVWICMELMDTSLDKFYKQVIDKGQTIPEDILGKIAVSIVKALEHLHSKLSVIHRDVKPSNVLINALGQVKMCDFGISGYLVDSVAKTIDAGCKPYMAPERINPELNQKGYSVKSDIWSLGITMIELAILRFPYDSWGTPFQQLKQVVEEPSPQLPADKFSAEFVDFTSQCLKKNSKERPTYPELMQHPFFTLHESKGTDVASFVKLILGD

[7] = molecular target: T2, Peripheral plasma membrane protein CASK (Homo sapiens) (UniProt O14936); test: Inhibition of CASK in human PC3 cell lysates at 10 uM using desthiobiotin-tagged ATP probe AX9989 followed by trypsinization by LC/MS analysis
T2 sequence (whole entry): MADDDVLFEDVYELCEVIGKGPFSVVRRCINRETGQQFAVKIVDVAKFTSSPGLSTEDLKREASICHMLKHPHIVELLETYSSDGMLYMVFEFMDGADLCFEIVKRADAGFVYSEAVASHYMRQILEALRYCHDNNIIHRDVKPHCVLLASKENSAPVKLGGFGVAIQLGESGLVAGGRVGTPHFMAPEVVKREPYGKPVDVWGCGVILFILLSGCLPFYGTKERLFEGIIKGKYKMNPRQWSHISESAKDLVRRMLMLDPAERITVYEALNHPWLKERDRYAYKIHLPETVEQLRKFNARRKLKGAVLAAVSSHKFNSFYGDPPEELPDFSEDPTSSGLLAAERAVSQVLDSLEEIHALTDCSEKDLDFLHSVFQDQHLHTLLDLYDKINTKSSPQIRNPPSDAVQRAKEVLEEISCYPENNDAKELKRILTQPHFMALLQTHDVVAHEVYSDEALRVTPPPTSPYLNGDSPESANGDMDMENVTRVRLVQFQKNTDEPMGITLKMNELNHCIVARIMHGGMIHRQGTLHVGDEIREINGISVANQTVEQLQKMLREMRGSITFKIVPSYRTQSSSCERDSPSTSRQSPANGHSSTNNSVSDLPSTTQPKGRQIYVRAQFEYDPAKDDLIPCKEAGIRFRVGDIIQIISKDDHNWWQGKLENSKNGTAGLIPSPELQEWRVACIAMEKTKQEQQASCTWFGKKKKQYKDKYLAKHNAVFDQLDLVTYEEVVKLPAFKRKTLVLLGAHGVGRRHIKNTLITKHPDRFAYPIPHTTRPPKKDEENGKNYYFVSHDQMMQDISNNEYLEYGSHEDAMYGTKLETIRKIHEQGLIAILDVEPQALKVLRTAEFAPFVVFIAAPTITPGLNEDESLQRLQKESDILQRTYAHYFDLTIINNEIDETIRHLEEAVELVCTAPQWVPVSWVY

[8] = molecular target: T3, Serine/threonine-protein kinase STK11 (Homo sapiens) (UniProt Q15831); test: Inhibition of LKB1 in human PC3 cell lysates at 10 uM using desthiobiotin-tagged ATP probe AX9989 followed by trypsinization by LC/MS analysis
T3 sequence (whole entry): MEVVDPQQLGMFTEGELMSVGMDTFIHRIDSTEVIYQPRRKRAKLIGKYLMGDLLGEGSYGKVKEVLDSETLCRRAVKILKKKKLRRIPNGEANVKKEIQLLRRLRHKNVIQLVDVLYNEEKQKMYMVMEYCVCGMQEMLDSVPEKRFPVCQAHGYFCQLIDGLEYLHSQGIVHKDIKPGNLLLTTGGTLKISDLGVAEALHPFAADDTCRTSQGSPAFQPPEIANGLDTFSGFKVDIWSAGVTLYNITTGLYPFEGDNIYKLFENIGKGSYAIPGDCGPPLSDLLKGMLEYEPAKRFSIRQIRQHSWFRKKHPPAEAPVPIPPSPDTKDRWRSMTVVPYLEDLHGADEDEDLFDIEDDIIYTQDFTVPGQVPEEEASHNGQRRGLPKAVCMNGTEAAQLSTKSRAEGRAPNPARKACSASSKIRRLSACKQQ

Sequence of PI4KA/PI4KAP2 (Homo sapiens) (A4QPH2 whole entry, looked up): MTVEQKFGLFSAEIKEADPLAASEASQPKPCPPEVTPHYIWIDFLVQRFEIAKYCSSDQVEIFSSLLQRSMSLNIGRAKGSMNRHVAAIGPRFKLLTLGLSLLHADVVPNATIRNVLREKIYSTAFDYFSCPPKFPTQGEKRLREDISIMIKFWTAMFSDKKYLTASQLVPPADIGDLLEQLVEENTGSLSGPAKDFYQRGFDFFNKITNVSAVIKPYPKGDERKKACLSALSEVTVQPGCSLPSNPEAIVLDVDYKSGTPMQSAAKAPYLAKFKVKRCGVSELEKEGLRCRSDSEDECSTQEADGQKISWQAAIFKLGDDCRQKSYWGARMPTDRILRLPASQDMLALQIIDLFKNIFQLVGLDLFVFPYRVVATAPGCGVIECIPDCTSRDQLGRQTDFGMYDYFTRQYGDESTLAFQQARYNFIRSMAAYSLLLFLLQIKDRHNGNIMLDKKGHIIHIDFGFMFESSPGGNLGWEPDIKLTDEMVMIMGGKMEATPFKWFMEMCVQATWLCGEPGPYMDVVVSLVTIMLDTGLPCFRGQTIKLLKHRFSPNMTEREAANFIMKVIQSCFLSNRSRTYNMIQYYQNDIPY
Sequence of PI4KA/PI4KAP2 (Homo sapiens) (P42356 whole entry, looked up): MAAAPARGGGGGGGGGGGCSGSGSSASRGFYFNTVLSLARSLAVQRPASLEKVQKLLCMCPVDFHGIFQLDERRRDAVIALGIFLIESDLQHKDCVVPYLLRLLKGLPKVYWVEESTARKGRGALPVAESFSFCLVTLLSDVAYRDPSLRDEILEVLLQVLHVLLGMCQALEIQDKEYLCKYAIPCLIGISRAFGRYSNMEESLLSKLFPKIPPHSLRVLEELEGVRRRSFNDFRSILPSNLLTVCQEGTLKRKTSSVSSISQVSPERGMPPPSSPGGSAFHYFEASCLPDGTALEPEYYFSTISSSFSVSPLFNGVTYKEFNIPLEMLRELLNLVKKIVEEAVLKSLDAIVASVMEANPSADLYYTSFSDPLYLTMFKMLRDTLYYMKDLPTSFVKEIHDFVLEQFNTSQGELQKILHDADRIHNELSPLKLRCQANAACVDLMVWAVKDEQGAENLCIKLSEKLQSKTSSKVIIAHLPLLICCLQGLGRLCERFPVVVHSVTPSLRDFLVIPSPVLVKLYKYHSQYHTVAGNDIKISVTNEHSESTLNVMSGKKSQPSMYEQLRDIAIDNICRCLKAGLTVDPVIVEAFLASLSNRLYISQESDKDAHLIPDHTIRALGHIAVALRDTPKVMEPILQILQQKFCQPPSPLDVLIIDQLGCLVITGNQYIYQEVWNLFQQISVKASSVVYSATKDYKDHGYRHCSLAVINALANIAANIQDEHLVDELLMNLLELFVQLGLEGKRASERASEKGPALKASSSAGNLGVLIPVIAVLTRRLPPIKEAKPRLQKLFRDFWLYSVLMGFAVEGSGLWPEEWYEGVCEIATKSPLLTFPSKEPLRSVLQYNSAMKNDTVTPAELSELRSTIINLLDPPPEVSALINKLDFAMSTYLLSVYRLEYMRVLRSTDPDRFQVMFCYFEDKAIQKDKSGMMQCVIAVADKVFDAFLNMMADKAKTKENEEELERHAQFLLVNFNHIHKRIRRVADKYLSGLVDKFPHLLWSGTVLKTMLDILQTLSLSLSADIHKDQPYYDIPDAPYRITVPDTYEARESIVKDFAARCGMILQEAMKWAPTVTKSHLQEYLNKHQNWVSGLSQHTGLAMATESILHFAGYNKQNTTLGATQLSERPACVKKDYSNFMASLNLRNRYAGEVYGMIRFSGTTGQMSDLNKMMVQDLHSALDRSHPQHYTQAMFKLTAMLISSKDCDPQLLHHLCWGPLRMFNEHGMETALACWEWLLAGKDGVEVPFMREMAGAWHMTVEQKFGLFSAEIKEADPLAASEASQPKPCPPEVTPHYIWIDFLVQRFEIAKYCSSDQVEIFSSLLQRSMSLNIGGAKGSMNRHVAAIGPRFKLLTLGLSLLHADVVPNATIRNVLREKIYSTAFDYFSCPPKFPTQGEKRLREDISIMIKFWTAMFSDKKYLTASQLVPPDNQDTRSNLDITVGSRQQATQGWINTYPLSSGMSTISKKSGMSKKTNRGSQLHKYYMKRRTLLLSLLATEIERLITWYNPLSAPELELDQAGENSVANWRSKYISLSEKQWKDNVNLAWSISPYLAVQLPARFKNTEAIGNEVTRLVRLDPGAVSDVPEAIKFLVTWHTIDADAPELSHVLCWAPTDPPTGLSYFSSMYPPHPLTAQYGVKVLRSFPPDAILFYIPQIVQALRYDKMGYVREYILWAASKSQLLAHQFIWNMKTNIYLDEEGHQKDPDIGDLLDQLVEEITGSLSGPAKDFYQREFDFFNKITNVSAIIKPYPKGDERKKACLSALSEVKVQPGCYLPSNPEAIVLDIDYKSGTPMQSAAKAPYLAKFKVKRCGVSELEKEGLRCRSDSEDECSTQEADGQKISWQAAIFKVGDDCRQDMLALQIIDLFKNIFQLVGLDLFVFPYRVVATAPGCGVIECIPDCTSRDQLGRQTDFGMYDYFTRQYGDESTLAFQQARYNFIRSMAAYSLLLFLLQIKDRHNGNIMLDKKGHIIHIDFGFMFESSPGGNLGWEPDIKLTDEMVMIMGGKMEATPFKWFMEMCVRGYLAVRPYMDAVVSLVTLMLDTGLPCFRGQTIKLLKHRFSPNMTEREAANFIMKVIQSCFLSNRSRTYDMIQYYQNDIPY

In the case of O=C(N[C@H](CO)c1ccccc1)c1ccc2nc(N[C@H]3CC[C@H](O)CC3)c3nccn3c2c1, the inhibition [1] is reported as < 35%, the inhibition [2] is reported as < 35% and the inhibition [3] is reported as < 35%. For the same molecule, the inhibition [4] was < 35%, the inhibition [5] was < 35% and the inhibition [6] was < 35%. For the same molecule, the inhibition [7] was < 35% and the inhibition [8] was < 35%.

In the case of CC(C)(NC(=O)c1ccc2nc(N[C@H]3CC[C@H](O)CC3)c3nccn3c2c1)c1ccccc1, the inhibition [1] is reported as < 35%, the inhibition [2] is reported as < 35% and the inhibition [3] is reported as < 35%. For the same molecule, the inhibition [4] was < 35%, the inhibition [5] was < 35% and the inhibition [6] was < 35%. For the same molecule, the inhibition [7] was < 35% and the inhibition [8] was < 35%.

For O=C(NC1(Cc2ccc(F)cc2)CC1)c1ccc2nc(N[C@H]3CC[C@H](O)CC3)c3nccn3c2c1, the inhibition [1] was < 35%, the inhibition [2] was < 35% and the inhibition [3] was < 35%. The inhibition [4] was < 35%, the inhibition [5] was < 35% and the inhibition [6] was < 35%. For the same molecule, the inhibition [7] was < 35% and the inhibition [8] was < 35%.

For O=C(O)c1ccc2nc(N[C@H]3CC[C@H](O)CC3)c3nccn3c2c1, the inhibition [1] was 73.1%, the inhibition [2] was 40.6% and the inhibition [3] was < 35%. For the same molecule, the inhibition [4] was < 35%, the inhibition [5] was < 35% and the inhibition [6] was < 35%. For the same molecule, the inhibition [7] was < 35% and the inhibition [8] was < 35%.

CCC[C@@H](NC(=O)c1ccc2nc(N[C@H]3CC[C@H](O)CC3)c3nccn3c2c1)c1ccccc1 was tested, and the inhibition [1] was < 35%, the inhibition [2] was < 35% and the inhibition [3] was < 35%. The inhibition [4] was < 35%, the inhibition [5] was < 35% and the inhibition [6] was < 35%. The inhibition [7] was < 35% and the inhibition [8] was < 35%.

For C[C@H](NC(=O)c1ccc2nc(N[C@H]3CC[C@H](O)CC3)c3nccn3c2c1)c1ccccc1, the inhibition [1] was < 35%, the inhibition [2] was < 35% and the inhibition [3] was < 35%. For the same molecule, the inhibition [4] was < 35%, the inhibition [5] was < 35% and the inhibition [6] was < 35%. The inhibition [7] was < 35% and the inhibition [8] was < 35%.

In the case of O=C(NC1(c2ccccc2)CC1)c1ccc2nc(N[C@H]3CC[C@H](O)CC3)c3nccn3c2c1, the inhibition [1] is reported as < 35%, the inhibition [2] is reported as < 35% and the inhibition [3] is reported as < 35%. For the same molecule, the inhibition [4] was < 35%, the inhibition [5] was < 35% and the inhibition [6] was < 35%. For the same molecule, the inhibition [7] was < 35% and the inhibition [8] was < 35%.

For O=C(NC1(c2ccccc2)CCC1)c1ccc2nc(N[C@H]3CC[C@H](O)CC3)c3nccn3c2c1, the inhibition [1] was < 35%, the inhibition [2] was < 35% and the inhibition [3] was < 35%. The inhibition [4] was < 35%, the inhibition [5] was < 35% and the inhibition [6] was < 35%. The inhibition [7] was < 35% and the inhibition [8] was < 35%.

C[C@@H](NC(=O)c1ccc2nc(N[C@H]3CC[C@H](O)CC3)c3nccn3c2c1)c1ccccc1 was tested, and the inhibition [1] was < 35%, the inhibition [2] was < 35% and the inhibition [3] was < 35%. The inhibition [4] was < 35%, the inhibition [5] was < 35% and the inhibition [6] was < 35%. For the same molecule, the inhibition [7] was < 35% and the inhibition [8] was < 35%.

For O=C(NC1(c2ccc(F)cc2)CC1)c1ccc2nc(N[C@H]3CC[C@H](O)CC3)c3nccn3c2c1, the inhibition [1] was < 35%, the inhibition [2] was < 35% and the inhibition [3] was < 35%. For the same molecule, the inhibition [4] was < 35%, the inhibition [5] was < 35% and the inhibition [6] was < 35%. The inhibition [7] was < 35% and the inhibition [8] was < 35%.

For NC(=O)c1ccc2nc(N[C@H]3CC[C@H](O)CC3)c3nccn3c2c1, the inhibition [1] was < 35%, the inhibition [2] was < 35% and the inhibition [3] was < 35%. The inhibition [4] was < 35%, the inhibition [5] was < 35% and the inhibition [6] was < 35%. For the same molecule, the inhibition [7] was < 35% and the inhibition [8] was < 35%.

For CC[C@@H](NC(=O)c1ccc2nc(N[C@H]3CC[C@H](O)CC3)c3nccn3c2c1)c1ccccc1, the inhibition [1] was < 35%, the inhibition [2] was < 35% and the inhibition [3] was < 35%. For the same molecule, the inhibition [4] was < 35%, the inhibition [5] was < 35% and the inhibition [6] was < 35%. The inhibition [7] was < 35% and the inhibition [8] was < 35%.
